Assay results taken from patent US10118895B2, “ROR gamma (RORγ) modulators” (LEAD PHARMA HOLDING B.V., priority 2015, dated 2018).

Target: T1, RORγ (Homo sapiens, UniProt P51449)
T1 construct: expressed in transfected cells; host or cells: 293FT cells (Invitrogen), expression vector pFN26A (Promega)
T1 sequence (P51449 269-508 limits assumed): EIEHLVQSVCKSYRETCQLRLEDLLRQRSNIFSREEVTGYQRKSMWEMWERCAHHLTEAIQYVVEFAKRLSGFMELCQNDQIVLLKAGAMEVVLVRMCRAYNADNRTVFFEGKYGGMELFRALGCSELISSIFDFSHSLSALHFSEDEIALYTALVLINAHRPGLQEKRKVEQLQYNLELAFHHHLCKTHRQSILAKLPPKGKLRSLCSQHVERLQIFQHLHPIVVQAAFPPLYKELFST
Test: RORγ GAL4 reporter gene assay (luciferase readout, 293FT cells)
Format: cell-based
Details: inhibition of RORγ (GAL4-RORγ-LBD) in transfected 293FT cells, luciferase signal, overnight incubation; read-out: mean pIC50 (converted)
Experimental: RORγ GAL4 Reporter Gene Assay
Example inhibitors 1-38 were tested for their ability to inhibit RORγ activity in a RORγ GAL4 reporter gene assay. The assay procedure and results are described below.
RORγ GAL4 Reporter Gene Assay Description
A GAL4 one-hybrid reporter system employing luciferase readout was established to determine inhibition of RORγ in 293FT cells. The RORγ ligand-binding domain (LBD) was fused to the yeast GAL4 DNA binding domain (DBD) and placed under the control of the human cytomegalovirus (CMV) immediate early promoter, using expression vector pFN26A (Promega) and standard recombinant DNA cloning methods. To serve as a control in the assay, a similar vector was generated in which the GAL4-DBD was fused to Herpes simplex virus protein 16 (VP16), a constitutive transcriptional activator.
To monitor the inhibitory effect of compounds on RORγ, a transcriptional reporter construct was used. The pGL4.35 vector (Promega) contains nine copies of the GAL4 Upstream Activator Sequence (UAS). This sequence drives the transcription of the luciferase reporter gene luc2P in response to binding of a fusion protein containing the GAL4 DNA binding domain, as for example expressed by the GAL4-RORγ-LBD and GAL4-VP16 expression vectors described above. To allow a GAL4 fusion protein to drive the expression of the luciferase reporter, the pGL4.35 expression vector and the appropriate GAL4 fusion protein expression vector were bulk transfected in the 293FT cells using standard transfection techniques.
The day after transfection, cells were plated into 96 well plates, test compound was added and the plates were incubated overnight. Subsequently, the firefly luciferase activity was quantified using luciferase detection reagent and luminescence readout.
Detailed Assay Description
293FT cells (Invitrogen) were transfected with a GAL4 fusion protein expression vector (as described above) and the transcriptional reporter construct (pGL4.35, Promega). 60 μL of TransIT-293 transfection reagent (Mirus Bio) was added drop wise to 1500 μl Opti-MEM I Reduced Serum Medium (Invitrogen) and incubated at RT (RT) for 5 to 20 minutes. 1500 μL of this reagent mixture was added to 5 μg of GAL4 fusion protein expression vector and 5 μg of the transcriptional reporter construct, and incubated at RT for 20 minutes.
To harvest 293FT cells from a T75 flask, first the culture medium was taken off the cells. Subsequently, the cells were washed with Phosphate Buffered Saline (PBS) (Lonza), after which the PBS was removed. To dissociate the cells, 1 ml of TrypLE Express (Invitrogen) was added to the flask, followed by incubation at RT until the cells visually started to detach. Cells were collected in 5 mL of assay medium (DMEM culture medium (Lonza), 10% dialyzed FBS (Invitrogen) and Pen/Strep (Lonza)) to achieve a single cell suspension. 10×10^6 cells were spun down and re-suspended in 10 mL of assay medium. Subsequently, the cell suspension was added to the transfection mix tube, and then transferred as a whole to a T75 flask (Greiner), followed by overnight (16-24 hours) incubation at 37° C. and 5% CO2.
For compound screening, the cells were harvested (as described above) and counted. 13×10^6 cells were spun down, the supernatant was aspirated and the cells were re-suspended in 17.3 mL of assay medium obtaining a cell suspension of 0.75×10^6 cells/mL. 80 μL of cell suspension (60,000 cells) was plated per well into a white, flat bottom, tissue culture treated, 96 well screening plates (Greiner).
Test compounds were diluted, starting from a 10 mM dimethylsulfoxide (DMSO) stock solution, to serial dilutions in DMSO at 500× the final test concentration. Subsequently, these solutions were diluted to 5× the final test concentration in two 10-fold-dilution steps in assay medium. The final DMSO concentration of the 5× test compound solution was 1%. […]

Row | Compound | IC50 [nM]
1 | O=C(Cc1ccc(S(=O)(=O)CC2CC2)nc1)Nc1ccc(C(O)(C(F)(F)F)C(F)(F)F)c(F)c1 [Example 4, 2-[6-(cyclopropylmethylsulfonyl)-3-pyridyl]-N-[3-fluoro-4-[2,2,2-trifluoro-1-hydroxy-1-(trifluoromethyl)ethyl]phenyl]acetamide] | ≤ 100
2 | O=C(Cc1ccc(S(=O)(=O)CC2CC2)nc1)Nc1ccc(C(O)(CC2CCCCC2)C(F)(F)F)cc1 (stereo not shown) [Example 16, N-[4-[1-(cyclohexylmethyl)-2,2,2-trifluoro-1-hydroxy-ethyl]phenyl]-2-[6-(cyclopropylmethylsulfonyl)-3-pyridyl]acetamide] | ≤ 1000
3 | CC(C)CCC(O)(c1ccc(NC(=O)Cc2ccc(S(=O)(=O)CC3CC3)nc2)cc1)C(F)(F)F (stereo not shown) [Example 13, 2-[6-(cyclopropylmethylsulfonyl)-3-pyridyl]-N-[4-[1-hydroxy-4-methyl-1-(trifluoromethyl)pentyl]phenyl]acetamide] | ≤ 1000
4 | COC(c1ccc(NC(=O)Cc2ccc(S(=O)(=O)CC3CC3)nc2)cc1)(C(F)(F)F)C(F)(F)F [Example 2, 2-[6-(cyclopropylmethylsulfonyl)-3-pyridyl]-N-[4-[2,2,2-trifluoro-1-methoxy-1-(trifluoromethyl)ethyl]phenyl]acetamide] | ≤ 100
5 | Cc1cc(C(O)(C(F)(F)F)C(F)(F)F)ccc1NC(=O)Cc1ccc(S(=O)(=O)CC2CC2)nc1 [Example 7, 2-[6-(cyclopropylmethylsulfonyl)-3-pyridyl]-N-[2-methyl-4-[2,2,2-trifluoro-1-hydroxy-1-(trifluoromethyl)ethyl]phenyl]acetamide] | ≤ 1000
6 | O=C(Cc1ccc(S(=O)(=O)CC2CC2)nc1)Nc1ccc(C(O)(C2CCCC2)C(F)(F)F)cc1 (stereo not shown) [Example 14, N-[4-(1-cyclopentyl-2,2,2-trifluoro-1-hydroxy-ethyl)phenyl]-2-[6-(cyclopropylmethylsulfonyl)-3-pyridyl]acetamide] | ≤ 1000
7 | CC(C)CC(O)(c1ccc(NC(=O)Cc2ccc(S(=O)(=O)CC3CC3)nc2)cc1)C(F)(F)F (stereo not shown) [Example 12, 2-[6-(cyclopropylmethylsulfonyl)-3-pyridyl]-N-[4-[1-hydroxy-3-methyl-1-(trifluoromethyl)butyl]phenyl]acetamide] | ≤ 100

Next, values leading:

Row | IC50 [nM] | Compound
8 | ≤ 100 | CC(C)OC(c1ccc(NC(=O)Cc2ccc(S(=O)(=O)CC3CC3)cn2)cc1)(C(F)(F)F)C(F)(F)F [Example 30, 2-[5-(cyclopropylmethylsulfonyl)-2-pyridyl]-N-[4-[2,2,2-trifluoro-1-isopropoxy-1-(trifluoromethyl)ethyl]phenyl]acetamide]
9 | ≤ 100 | COC(c1ccc(NC(=O)Cc2ccc(S(=O)(=O)CC3CC3)cn2)cc1)(C(F)(F)F)C(F)(F)F [Example 34, 2-[5-(cyclopropylmethylsulfonyl)-2-pyridyl]-N-[4-[2,2,2-trifluoro-1-methoxy-1-(trifluoromethyl)ethyl]phenyl]acetamide]
10 | ≤ 1000 | O=C(Cc1ncc(S(=O)(=O)CC2CC2)cn1)Nc1ccc(C(O)(C(F)(F)F)C(F)(F)F)cc1 [Example 35, 2-[5-(cyclopropylmethylsulfonyl)pyrimidin-2-yl]-N-[4-[2,2,2-trifluoro-1-hydroxy-1-(trifluoromethyl)ethyl]phenyl]acetamide]
